# Test results from patent US8143307B2, “Benzothiophen-2-carbonylguanidine derivatives, preparation thereof, and pharmaceutical composition containing the same” (Korea Research Institute of Chemical Technology, priority 2004, dated 2012).
# Experiments:
# Human NHE-1 = target: T1, Human NHE-1 (Homo sapiens, UniProt P19634); assay: Inhibitory effect on NHE-1 in PS120/NHE-1 cells (recovery from intracellular acidosis, BCECF fluorescence); assay type: cell-based; conditions: human NHE-1 expressed PS120 cells; concentration at which recovery from intracellular acidosis was 50% inhibited
# T1 construct: expressed in transfected cells; host or cells: CCL39-derived PS120 cells (PS120/NHE-1)
# T1 sequence (P19634 whole entry): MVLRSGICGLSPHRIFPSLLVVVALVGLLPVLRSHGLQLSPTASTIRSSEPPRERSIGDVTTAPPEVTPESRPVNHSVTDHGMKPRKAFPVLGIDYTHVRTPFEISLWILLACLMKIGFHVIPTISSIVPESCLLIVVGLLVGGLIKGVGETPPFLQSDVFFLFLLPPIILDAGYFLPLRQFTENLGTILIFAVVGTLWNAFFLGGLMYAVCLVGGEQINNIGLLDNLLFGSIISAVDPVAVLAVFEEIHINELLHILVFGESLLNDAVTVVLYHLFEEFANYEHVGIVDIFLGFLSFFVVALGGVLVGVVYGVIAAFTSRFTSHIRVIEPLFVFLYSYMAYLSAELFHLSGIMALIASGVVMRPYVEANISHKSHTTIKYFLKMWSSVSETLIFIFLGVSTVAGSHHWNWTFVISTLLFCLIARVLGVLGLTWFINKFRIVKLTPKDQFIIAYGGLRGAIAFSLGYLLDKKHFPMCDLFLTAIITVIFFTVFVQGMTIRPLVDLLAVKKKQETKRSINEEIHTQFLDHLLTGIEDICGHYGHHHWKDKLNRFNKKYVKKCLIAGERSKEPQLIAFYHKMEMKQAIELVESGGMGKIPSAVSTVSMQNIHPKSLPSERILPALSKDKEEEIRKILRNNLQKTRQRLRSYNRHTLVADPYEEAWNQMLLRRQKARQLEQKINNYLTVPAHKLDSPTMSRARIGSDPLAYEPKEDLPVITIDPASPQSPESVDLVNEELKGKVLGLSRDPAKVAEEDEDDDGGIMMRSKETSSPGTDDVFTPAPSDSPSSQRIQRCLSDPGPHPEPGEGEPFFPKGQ
# [1] = system: in vivo ischemic rat brain model; assay: Cerebroprotective effect on in vivo ischemic rat brain model; conditions: for % Infarct size/hemisphere / TUNEL-Positive Cells (% Right/Left Hemisphere): 60 min ischemia, 24 hours reperfusion
# Method: In order to examine whether the benzothiophen-2-carbonylguanidine derivatives of the present invention protect the brain from ischemia-reperfusion-induced cerebral injury, the following experiment was conducted.
# Male Sparague-Dawley Rats (350±50 g, Samyook Experimental Animal Lab) were anesthetized and intraperitoneally injected with heparine. After ischemia by the occlusion of the right carotid artery for 60 min, reperfusion was performed for 24 hours. Compounds or a vehicle was intravenously injected at 20 min before the occlusion.
# After the perfusion for 24 hours, rats were anesthetized with a fatal dose of sodium pentobarbital. The brains were carefully isolated and transected at intervals of 2 mm. The coronary slices thus obtained were stained at 37° C. for 20 min using a 2% 2,3,5-triphenyltetrazolium chloride solution. Stained slices were analyzed for % necrosis area relative to total brain area using an image analyzer (BAS image 1500). Also, the cerebroprotective activity of the compounds against brain edema was expressed as % volume of the left hemisphere relative to that of the ischemic right hemisphere.
# [2] = 0.1 mg/kg intravenous 20 min before occlusion
# [3] = 0.3 mg/kg intravenous 20 min before occlusion
compound,measurement,setting,value
"CS(=O)(=O)O.N#Cc1cccc2sc(C(=O)N=C(N)N)cc12 [Example 42, (4-Cyanobenzothiophene-2-Carbonyl)Guanidine Methanesulfonate]",IC50,Human NHE-1,2.02 µM
same,% Infarct size/hemisphere,[1]; [2],21.4%
same,TUNEL-Positive Cells (% Right/Left Hemisphere),[1]; [2],111.2%
same,% Infarct size/hemisphere,[1]; [3],18.6%
same,TUNEL-Positive Cells (% Right/Left Hemisphere),[1]; [3],107.96%
same,ischemia/reperfusion-induced brain infarction and brain edema,[1]; injection doses of both 0.1 mg/kg and 0.3 mg/kg,significantly reduced
